In patent US12534496B2, “Polymorphic forms of Cyclo (-His-Pro) and methods of use to treat kidney disease” (NovMetaPharma Co., Ltd., priority 2018, dated 2026):
Entries after “also recorded” stand apart in the source; their conditions may differ. Read-outs that look alike come from different tables or passages of the source.

Columns and labels:
Assay type in all cases: physicochemical
[1] = 1-week stability assessment (40 °C/75% RH, 80 °C, ambient light; XRPD, HPLC purity)
[2] = Solution state chemical stability in water/acetone and EtOH/water/MtBE (HPLC purity); conditions: water/acetone and EtOH/H2O/MtBE, 50 °C for 20 h
Method: Solution state chemical stability of the compound was studied in different solvent systems at different temperatures (Table 4). The solution was held at 50° C. and 80° C., and purity of the solution was tracked. The compound was generally stable for at least 20 hours.

[3] = 1-week stability assessment (40 °C/75% RH, 80 °C, ambient light; XRPD, HPLC purity); remark: listed apart in the source
Method: XRPD analysis was carried out on a sample of 5 g of CHP Hydrate. The sample was weighed in a glass vial, and 6 mL of a 90:10 ethanol/water mixture was added to make a slurry. The mixture was then agitated for approximately 24 hours at ambient temperature and then analyzed by XRPD. […] XPRD analysis was carried out to assess any change in the form of the material.

[4] = pH solubility assessment in buffers at 37 °C; conditions: for μL for Dissolution at 37° C.: 100 mg solid
Method: CHP patterns 1 and 2 were prepared for pH solubility assessment as follows: • 100 mg of CHP pattern 1 and pattern 2 were each weighed out into 4, 5 mL screw top glass vials; • 100 μL of a selected buffer, pre-heated to 37° C., was added to each vial; • Samples were heated to 37° C. in an incubator shaker for ca. 10 minutes after each volume of buffer and checked for sample dissolution.

[5] = GMP stability study of CHP anhydrate and CHP hydrate under accelerated conditions (total impurities); conditions: for Growth of total Impurities: 40 °C/75% RH
Method: CHP anhydrate (Pattern 1) and hydrate (Pattern 2) compounds were manufactured under GMP conditions. A stability study for the CHP anhydrate compound was conducted under ccelerated conditions (40±5° C./75±5% RH) for six months and room temperature conditions (25±5° C./60±5% RH) for 12 months. A further stability study for the CHP hydrate compound was conducted under accelerated conditions (40±5° C./75±5% RH) for 6 months (Table 18).

[6] = Vacuum oven heating of Pattern 2 (XRPD)
Method: i. 80° C. Heating of Pattern 2 • Ca. 2.2 g of pattern 2 material (prepared as per Section 5.6.1) was placed inside a vacuum oven set to 50° C.; • After 1 hour, a sample was taken and analyzed by XRPD; • Vial was returned to the vacuum oven and the temperature increased to 60° C.; • After 30 minutes, a sample was taken and analyzed by XRPD; • Vial was returned to the vacuum oven and the temperature increased to 80° C.; • After 18 hours at 80° C., a sample was taken and analyzed by XRPD; ii. Fast Rotary Evaporation in Ethanol/DCM • 1 g of received CHP pattern 1 was weighed in to a round bottom flask and dissolved in 40 mL of ethanol; • Once the solid had dissolved, 2 mL of dichloromethane was pipetted into the flask; • The flask was then attached to a rotary evaporator and fast evaporated at ambient temperature under vacuum; • A pale beige solid was recovered an analyzed by XRPD. 7. pH Solubility Assessment

[7] = Solubility of CHP hydrate (Pattern 2) in water/acetone
[8] = Dry stability at 35, 40, 50 and 65 °C (XRPD)
Method: Drying stability was carried out at 35° C., 40° C., 50° C., and 65° C. respectively.

[9] = Solubility of CHP hydrate (Pattern 2) in EtOH/water/MtBE; conditions: organic solvent or mixture

O=C1N[C@@H](Cc2cnc[nH]2)C(=O)N2CCC[C@@H]12 [Pattern 2, Pyrrolo [1,2-a]pyrazine-1,4-dione, hexahydro-3-(1H-imidazol-5-ylmethyl)-, hydrate (1:1), (3S, 8aS)-]
Purity after 1 week ([1]; HPLC, 40 °C/75% RH): 99.5%
Purity after 1 week ([1]; HPLC, 80 °C): 99.4%
Purity after 1 week ([1]; HPLC, Ambient): 99.5%
Purity of starting material ([1]; HPLC, before storage): 99.5%
Change in HPLC purity after 7 days ([1]; all conditions (40 °C/75% RH, 80 °C, ambient light)): no drop in purity; also recorded: No change in purity
Chemical stability under both crystallization conditions [2]: stable
XRPD form after storage ([3]; 7 days at 40 °C/75% RH): No change in form
XRPD form after storage ([3]; 7 days at 40 °C/75% RH, listed as pattern 2): remain as pattern 2
XRPD form after storage ([3]; 7 days at 40 °C/75% RH, listed as pattern 2 CHP): remained as pattern 2
XRPD form after storage ([3]; 7 days at 80 °C): convert to pattern 1
XRPD form after storage ([3]; 7 days at 80 °C, listed as pattern 2): dehydration from pattern 2 to pattern 1
XRPD form after storage ([3]; 7 days at 80 °C, listed as pattern 2 CHP): converted to pattern 1
XRPD form after storage ([3]; 7 days in ambient light): No change in form
XRPD form after storage ([3]; 7 days in ambient light, listed as pattern 2): remain as pattern 2
XRPD form after storage ([3]; 7 days in ambient light, listed as pattern 2 CHP): remained as pattern 2
μL for Dissolution at 37° C. ([4]; buffer pH 1): 300 µL
μL for Dissolution at 37° C. ([4]; buffer pH 4): 300 µL
μL for Dissolution at 37° C. ([4]; buffer pH 6.8): 300 µL
μL for Dissolution at 37° C. ([4]; buffer pH 7.2): 300 µL
solubility at 10 min ([4]; aqueous buffer, thermodynamic from solid, buffer pH 7.2, 37 °C, read-out: Approximate Solubility): 333 to 500 mg/mL
solubility at 10 min ([4]; buffer pH 1, 37 °C, pH 1, thermodynamic from solid, read-out: Approximate Solubility): 333 to 500 mg/mL
solubility at 10 min ([4]; buffer pH 4, 37 °C, pH 4, aqueous buffer, thermodynamic from solid, read-out: Approximate Solubility): 333 to 500 mg/mL
solubility at 10 min ([4]; buffer pH 6.8, 37 °C, pH 6.8, aqueous buffer, thermodynamic from solid, read-out: Approximate Solubility): 333 to 500 mg/mL
solubility at 10 min ([4]; buffer, aqueous buffer, thermodynamic from solid, all pH values tested (pH 1, 4, 6.8 and 7.2), 37 °C, read-out: Solubility (estimated)): 333 to 500 mg/mL
Growth of total Impurities ([5]; 0M): 0%
Growth of total Impurities ([5]; 1M): 0%
Growth of total Impurities ([5]; 3M, listed as CHP hydrate (pattern 2)): 0.00%
Growth of total Impurities ([5]; 6M, listed as CHP hydrate (pattern 2)): 0.05%
Quality changes during stability study ([5]; accelerated conditions for 6 months): no significant quality changes
XRPD form after heating ([6]; oven 80 °C, additional 18 hours): mixture of Pattern 1 and 2
XRPD form after heating ([6]; vacuum oven 50 °C, 1 hour): predominately Pattern 2 with some Pattern 1 peaks
XRPD form after heating ([6]; vacuum oven, further 30 minutes (1.5 hour in total)): predominantly Pattern 2 with some Pattern 1 peaks
solubility ([7]; water/acetone 0/10 (v/v), 50 °C, organic solvent or mixture): 14 mg/mL
solubility ([7]; water/acetone 0.5/9.5 (v/v), 50 °C, organic solvent or mixture): 49 mg/mL
solubility ([7]; water/acetone 1/9 (v/v), 5 °C, organic solvent or mixture): 48 mg/mL
solubility ([7]; water/acetone 1/9 (v/v), 50 °C, organic solvent or mixture): 159 mg/mL
solubility ([7]; water/acetone 2/8 (v/v), 5 °C, organic solvent or mixture): 110 mg/mL
solubility ([7]; water/acetone 4/6 (v/v), 5 °C, organic solvent or mixture): 179 mg/mL
solubility ([7]; water/acetone 6/4 (v/v), 5 °C, aqueous with cosolvent or surfactant or cyclodextrin): 206 mg/mL
solubility ([7]; water/acetone 8/2 (v/v), 5 °C, aqueous with cosolvent or surfactant or cyclodextrin): > 200 mg/mL
solubility ([7]; water/acetone 9/1 (v/v), 5 °C, aqueous with cosolvent or surfactant or cyclodextrin): 215 mg/mL
solubility ([7]; water/acetone, 5 °C, organic solvent or mixture, water/acetone 0/10 (v/v)): 17 mg/mL
solubility ([7]; water/acetone, 5 °C, organic solvent or mixture, water/acetone 0.5/9.5 (v/v)): 19 mg/mL
solubility ([7]; water/acetone, 50 °C, aqueous with cosolvent or surfactant or cyclodextrin, water/acetone 6/4 (v/v)): > 200 mg/mL
solubility ([7]; water/acetone, 50 °C, aqueous with cosolvent or surfactant or cyclodextrin, water/acetone 8/2 (v/v)): > 200 mg/mL
solubility ([7]; water/acetone, 50 °C, aqueous with cosolvent or surfactant or cyclodextrin, water/acetone 9/1 (v/v)): > 200 mg/mL
solubility ([7]; water/acetone, 50 °C, organic solvent or mixture, water/acetone 2/8 (v/v)): > 200 mg/mL
solubility ([7]; water/acetone, 50 °C, organic solvent or mixture, water/acetone 4/6 (v/v)): > 200 mg/mL
Drying stability (form) ([8]; drying at 35-65 °C, up to 4 days): stable up to 40 °C for at least 4 days
XRPD ([8]; drying at 35 °C, 1 d): Pattern 2
XRPD ([8]; drying at 35 °C, 4 d): Pattern 2
XRPD ([8]; drying at 40 °C, 1 d): Pattern 2
XRPD ([8]; drying at 40 °C, 2 d): Pattern 2
XRPD ([8]; drying at 40 °C, 3 d): Pattern 2
XRPD ([8]; drying at 40 °C, 4 d): Pattern 2
XRPD ([8]; drying at 50 °C, 1 d): Pattern 2
XRPD ([8]; drying at 50 °C, 2 d): Pattern 2
XRPD ([8]; drying at 50 °C, 4 d): Pattern 1
XRPD ([8]; drying at 65 °C, 1 d): Pattern 2
XRPD ([8]; drying at 65 °C, 2 d): Pattern 1
Drying stability (form) ([8]; lab oven under −0.09 MPa): stable at below 40 °C
solubility ([9]; (EtOH/water = 9/1)/MtBE 3/0 (v/v), 5 °C): 121 mg/mL
solubility ([9]; (EtOH/water = 9/1)/MtBE 3/0 (v/v), 50 °C): > 200 mg/mL
solubility ([9]; (EtOH/water = 9/1)/MtBE 3/1 (v/v), 5 °C): 59 mg/mL
solubility ([9]; (EtOH/water = 9/1)/MtBE 3/1 (v/v), 50 °C): > 200 mg/mL
solubility ([9]; (EtOH/water = 9/1)/MtBE 3/3 (v/v), 5 °C): 30 mg/mL
solubility ([9]; (EtOH/water = 9/1)/MtBE 3/3 (v/v), 50 °C): 101 mg/mL
solubility ([9]; (EtOH/water = 9/1)/MtBE 3/6 (v/v), 5 °C): 6 mg/mL
solubility ([9]; (EtOH/water = 9/1)/MtBE 3/6 (v/v), 50 °C): 24 mg/mL
solubility ([9]; (EtOH/water = 9/1)/MtBE 3/9 (v/v), 5 °C): 6 mg/mL
solubility ([9]; (EtOH/water = 9/1)/MtBE 3/9 (v/v), 50 °C): 17 mg/mL
